Usually IC50 stands for the concentration at which inhibition is half-maximal.

This experiment concerns the target Coagulation factor XI (Homo sapiens, UniProt P03951). In words: factor XIa inhibitor concentration-response – biochemical, hits from 1536-well screen, dose response (AID 846). Particulars: pH 7.4; 23 °C.

Sequence of Coagulation factor XI (P03951 19-387 limits assumed): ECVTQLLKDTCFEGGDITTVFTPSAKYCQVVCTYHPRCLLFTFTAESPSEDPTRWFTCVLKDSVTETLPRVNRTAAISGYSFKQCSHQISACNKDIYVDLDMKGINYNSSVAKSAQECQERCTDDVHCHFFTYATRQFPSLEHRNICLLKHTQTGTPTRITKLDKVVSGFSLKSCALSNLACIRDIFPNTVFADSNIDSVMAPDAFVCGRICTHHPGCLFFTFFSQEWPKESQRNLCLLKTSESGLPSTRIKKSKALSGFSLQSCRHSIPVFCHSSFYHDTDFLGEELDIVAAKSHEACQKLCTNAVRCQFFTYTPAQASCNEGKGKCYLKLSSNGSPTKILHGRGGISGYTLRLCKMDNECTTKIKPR
Sequence of Coagulation factor XI (P03951 388-625 limits assumed): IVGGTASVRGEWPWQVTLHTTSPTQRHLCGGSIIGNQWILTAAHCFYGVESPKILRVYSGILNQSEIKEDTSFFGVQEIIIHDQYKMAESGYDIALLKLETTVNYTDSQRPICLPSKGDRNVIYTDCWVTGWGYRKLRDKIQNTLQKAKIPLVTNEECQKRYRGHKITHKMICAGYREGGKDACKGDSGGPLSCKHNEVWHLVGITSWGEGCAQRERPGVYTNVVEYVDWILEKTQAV

On to `Cc1ccc(NS(=O)(=O)c2ccc(C(=O)OCC(=O)Nc3cc(C)on3)cc2)cc1` [[2-[(5-methyl-1,2-oxazol-3-yl)amino]-2-oxoethyl] 4-[(4-methylphenyl)sulfamoyl]benzoate], for which the IC50 was greater than 50 µM.

Molecule `Cc1ccc(C(=O)ON=C2CCS(=O)(=O)c3sccc32)cc1` [[[7,7-bis(oxidanylidene)-5,6-dihydrothieno[2,3-b]thiopyran-4-ylidene]amino] 4-methylbenzoate] came in with an IC50 of 3.46 µM. Molecule `CCOC(=O)c1c(C)n(C)c2ccc(OC)c(NC(=O)CCN3CCC(Cc4ccccc4)CC3)c12` [ethyl 5-methoxy-1,2-dimethyl-4-[3-[4-(phenylmethyl)piperidin-1-yl]propanoylamino]indole-3-carboxylate] displayed an IC50 greater than 50 µM.

Molecule `COC(=O)c1cccc(NC(=O)CSc2nnc[nH]2)c1` [methyl 3-{[(4H-1,2,4-triazol-3-ylthio)acetyl]amino}benzoate] came in with a concentration for half-maximal inhibition (IC50) greater than 50 µM.

Consider `NC(=O)NOCc1ccccc1` [phenylmethoxyurea], for which the IC50 is greater than 50 µM. Molecule `CCN(CC)CCNC(=O)c1ccc(NC(=O)c2cccc(S(=O)(=O)Nc3ccc(C)cc3)c2)cc1` [potassium;[3-[[4-[2-(diethylamino)ethylcarbamoyl]phenyl]carbamoyl]phenyl]sulfonyl-(4-methylphenyl)azanide] returned an IC50 greater than 50 µM.
